# Measured values published in PubChem BioAssay (NCI).
#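 Cultured in 96-well plates, cells were exposed to test compound for 48 hours across five concentrations. GI50: concentration for 50% inhibition of growth. Definition used: TGI = concentration required for complete inhibition of growth.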
# Key:
# Assay in all cases: DTP human tumour cell line panel, 48 h
# K-562 leukemia = tested on: K-562 leukemia
# 786-0 renal = tested on: 786-0 renal
# SF-539 CNS = tested on: SF-539 CNS
# SNB-75 CNS = tested on: SNB-75 CNS
# KM12 colon = tested on: KM12 colon
# HCT-15 colon = tested on: HCT-15 colon
# BT-549 breast = tested on: BT-549 breast
# M14 melanoma = tested on: M14 melanoma
SMILES,GI50 (K-562 leukemia) [µM],TGI (K-562 leukemia) [µM],GI50 (786-0 renal) [µM],TGI (786-0 renal) [µM],GI50 (SF-539 CNS) [µM],TGI (SF-539 CNS) [µM],GI50 (SNB-75 CNS) [µM],TGI (SNB-75 CNS) [µM],GI50 (KM12 colon) [µM],TGI (KM12 colon) [µM],GI50 (HCT-15 colon) [µM],TGI (HCT-15 colon) [µM],GI50 (BT-549 breast) [µM],TGI (BT-549 breast) [µM],TGI (M14 melanoma) [µM],GI50 (M14 melanoma) [µM]
Oc1ccc(Cl)cc1CNc1nc2ccccc2[nH]1,15.4,56,14.3,31.4,12.9,26.8,4.58,21.6,13.3,27,11.5,26.1,9.05,23.3,,
O=C1OC(OCC#CCOC2OC(=O)C(Cl)=C2Cl)C(Cl)=C1Cl (stereo unspecified),,,,16.8,,31.8,,28.4,,39.3,,27.3,,,23.9,
CC(C)CCN[C@@H]1CCc2cc(O)c(N3CC(=O)NS3(=O)=O)c(F)c2C1,> 100,> 100,> 100,> 100,20.3,> 100,1.17,> 100,> 100,> 100,> 100,> 100,5.44,> 100,> 100,> 100
CNC(=O)OCC1C2=C(C(=O)C(C)=C(N)C2=O)N2CC3C(N3C)C12OC (stereo unspecified),,> 100,,21.2,,87.5,,,,,,27,,> 100,> 100,
O=C1OC(CN2CCOCC2)CN1/N=C/c1ccc([N+](=O)[O-])o1 (stereo unspecified),,> 100,,> 100,,> 100,,> 100,,45.8,,39.2,,> 100,45.6,
CC(C)COC(=O)c1ccc2[nH]c(O)c(C=Nc3ccc(S(N)(=O)=O)cc3)c2c1,2.32,17.1,1.21,4.24,0.975,3.67,1.77,5.15,1.06,3.87,5.9,25,1.65,4,4.8,1.25
CN(C)CCN1C(=O)c2cccc3cccc(c23)C1=O,9.68,> 25,24,> 25,15.6,> 25,> 25,> 25,12.9,> 25,11.4,> 25,> 25,> 25,> 25,> 25
O=C(Nc1ccc(Cl)c(Cl)c1)OCCN1c2ccccc2Sc2ccccc21,,> 10,,> 10,,> 10,,> 10,,> 10,,> 10,,> 10,> 10,
NCCSCCc1ccccc1,,> 100,,> 100,,> 100,,> 100,,> 100,,> 100,,> 100,> 100,
CCc1nc(N)nc(N)c1-c1ccc(Cl)c(N=CN(C)C)c1,,> 100,,> 100,,> 100,,> 100,,> 100,,> 100,,> 100,> 100,
CCCNc1nc2ccccc2c2c1S(=O)(=O)c1ccc(Cl)cc1C2=O,0.45,> 50,1.7,> 50,1.26,3.63,,,1.49,> 50,0.728,> 50,0.734,> 50,> 50,0.625
c1ccc(CNc2nc(Nc3ccccc3)nc3ccccc23)cc1,,,1.66,3.12,1.69,3.14,1.93,6.5,2.92,10.1,,,1.9,3.97,3.6,1.83
O=C1C=CC(O)C2C1CC13SSC4(CC5C(=O)C=CC(O)C5N4C1=O)C(=O)N23 (stereo unspecified),,> 100,,0.49,,0.505,,5.14,,0.342,,0.794,,3.65,0.752,
C=CCCCc1ccc(C(O)CCCCCCCCCCCC)o1 (stereo unspecified),24.5,> 100,15.2,28.5,22.1,40.6,15.5,32,21.3,46,15.5,30.3,22.6,43.3,38.9,18.9
C=C1[C@@H]([C@@]2(C)C=CC(=O)C(C)(C)[C@@H]2CC(=O)OC)CC[C@@]2(C)C(c3ccoc3)OC(=O)[C@H]3O[C@]132 (stereo partly specified),,,,> 100,,> 100,,> 100,,> 100,,> 100,,> 100,> 100,
Cc1cc(OCc2nnc3n2N=C(c2ccc(Cl)cc2Cl)CS3)ccc1Cl,54.7,> 100,> 100,> 100,> 100,> 100,,,53.3,> 100,39.4,> 100,25.9,> 100,> 100,43.4
CN1C(Cl)=NS(=O)(=O)c2ccccc21,,> 100,,> 100,,> 100,,,,> 100,,> 100,,> 100,> 100,
Cc1cccc(Nc2cnc(N)nc2N)c1,,> 100,,> 100,,> 100,,> 100,,> 100,,> 100,,,> 100,
O=C1CC(c2ccc(Cl)cc2)Oc2ccccc21 (stereo unspecified),,9.46,,32.4,,26.1,,50.1,,31.5,,48,,,58.4,
COc1ccc(OC)c(Nc2nc(-c3c(C)nc4sccn34)cs2)c1,,,32.3,> 100,48.8,> 100,3.38,33.7,> 100,> 100,> 100,> 100,11,> 100,> 100,> 100
CN(/N=N/c1nc(OCc2ccccc2)c2[nH]cnc2n1)C(=O)Oc1ccc([N+](=O)[O-])cc1,11.9,> 50,8.76,23.7,9.88,28.8,,,8.49,18.7,8.9,20,7.35,20.4,18.4,8.87
